Source: patent US20060258703A1, “Remedy for pruritus comprising piperidine derivative as the active ingredient” (ONO PHARMACEUTICAL CO., LTD., priority 2003, published 2006)

System: ovalbumin-induced eye scratching behavior in actively sensitized male Hartley guinea pigs
Assay: inhibitory effect on eye itching using albumin induced eye itching model
Type: in vivo, guinea pig
Conditions: for number of eye scratching times / eye scratching behavior inhibition ratio: 10 μL/eye instilled 30 min before ovalbumin, n=8; for number of eye scratching times: counted for 60 min, average; for eye scratching behavior inhibition ratio: ratio to control (average)
Procedure: The inhibitory effect on eye itching of piperidine derivatives of the present invention was studied using albumin induced eye itching model.
1. The test of inhibitory effect on eye itching using albumin induced eye itching model
Aluminum hydroxide gel absorption ovalbumin (20 μg/mL)was dissolved in physiological saline solution, each solution ([…]) was injected subconjunctivally to the both eyeballs of five-week-old male Hartley guinea pigs to sensitize them actively. 14 days after sensitization, 1.0% (W/V) of ovalbumin physiological saline solution was instilled into both their eyes, 10 μL/eye, respectively.
As test compounds, a suspension of 0.01% (W/V) and 0.1% (W/V) of {4-cyano-4-[3-(cyclopentyloxy)-4-(difluoromethoxy)phenyl]piperidine-1-yl}acetic acid monohydrate (hereinafter, it is the compound A) in 0.1% hydroxypropylmethylcellulose was prepared and it was instilled into both eyes of the above-mentioned guinea pigs, 10 μL/eye, respectively, 30 minutes before the instillation of ovalbumin. 0.1% hydroxypropylmethylcellulose was used as control.
The behavior of guinea pigs for 60 minutes after ovalbumin instillation was video recorded. The inhibitory effect on eye itching was evaluated by counting each number of eye scratching times in case of instillation of each test compound solution and control. […] In addition, the number of example is eight. eye scratching behavior inhibition ratio=100−([the number of eye scratching times of the test compound]÷[the number of eye scratching times of control])×100

`N#CC1(c2ccc(OC(F)F)c(OC3CCCC3)c2)CCN(CC(=O)O)CC1.O` [Compound A, {4-cyano-4-[3-(cyclopentyloxy)-4-(difluoromethoxy)phenyl]piperidine-1-yl}acetic acid monohydrate] was tested, and the “number of eye scratching times” value (0.01% (W/V) suspension in 0.1% hydroxypropylmethylcellulose) was 44.6 times, the “eye scratching behavior inhibition ratio” value (0.01% (W/V) suspension) was 34.4% and the “number of eye scratching times” value (0.1% (W/V) suspension in 0.1% hydroxypropylmethylcellulose) was 29.0 times. The “eye scratching behavior inhibition ratio” value (0.1% (W/V) suspension) was 57.4% and the “number of eye scratching times compared to control (in words)” value (guinea pigs given 0.01% and 0.1% eye instillation, extent almost depends on concentration) was “decreases significantly compared to control”.
